Test results published in patent publication US20190125790A1, “USE OF HYPOCHLOROUS ACID AS A TOPICAL ANTIMICROBIAL” (BIIOSMART TECHNOLOGIES LLC, priority 2016, published 2019).

Assay: Controlled randomized single blind clinical trial in surgical open wounds
Format: in vivo, human
Description: The biocompatibility of the 0.046% HOCl concentration aqueous solution was tested in a three way controlled and randomized single blind clinical trial. Patients were randomized into three groups (60 patients per group). The antiseptic efficacy and biocompatibility of the test solution vs. povidone-iodine vs. chlorhexidine (Chlorhexidine Gluconate—CHG) in surgical—clean and clean contaminated—open wounds was evaluated in 180 patients admitted to the surgical facilities of Erasmo Meoz Hospital in Cucuta, Colombia.

SMILES: [H]/N=C(\N/C(=N/[H])NCCCCCCNC(=N)NC(=N)Nc1ccc(Cl)cc1)Nc1ccc(Cl)cc1 [chlorhexidine, Chlorhexidine Gluconate]
- infected patients (after five days follow-up, 60 patients per group): two
- wound appearance (biocompatibility) (human, in vivo): dried edges and no promising color in wound bed
